Reference: patent publication US9714231B2, “Pyrrolidine GPR40 modulators” (BRISTOL-MYERS SQUIBB COMPANY, priority 2012, dated 2017)
pEC50: −log10 of the molar value. Counter-ions that a name gives are not always drawn.

target: human GPR40 (Homo sapiens, UniProt O14842); experiment: FDSS-based intracellular calcium assay (Human GRP40 in vitro assay); format: cell-based; parameters: 3xFLAG; expressed in transfected cells; conditions: cells expressing GPR40, intracellular Ca2+ response, FDSS reader; read-out: hGPR40 EC50
Description: To conduct the fluorescent imaging plate reader (FLIPR)-based calcium flux assay to measure intracellular Ca^2+ response, cells expressing GPR40 are plated on 384 well plates (BD BIOCOAT® #356697) at a density of 20,000 cells/20 μL medium per well in phenol red and serum-free DMEM (GIBCO® #21063-029) and incubated overnight. Using BD kit #s 80500-310 or -301, the cells are incubated with 20 μL per well of Hank's buffered salt solution with 1.7 mM probenecid and Fluo-3 at 37° C. for 30 min. Compounds are dissolved in DMSO and diluted to desired concentrations with assay buffer and added to the cells as 3× solution (20 μL per well). Run fluorescence/luminescence reader FDSS (Hamamatsu) to read intracellular Ca^2+ response.

Sequence of human GPR40 (O14842 whole entry): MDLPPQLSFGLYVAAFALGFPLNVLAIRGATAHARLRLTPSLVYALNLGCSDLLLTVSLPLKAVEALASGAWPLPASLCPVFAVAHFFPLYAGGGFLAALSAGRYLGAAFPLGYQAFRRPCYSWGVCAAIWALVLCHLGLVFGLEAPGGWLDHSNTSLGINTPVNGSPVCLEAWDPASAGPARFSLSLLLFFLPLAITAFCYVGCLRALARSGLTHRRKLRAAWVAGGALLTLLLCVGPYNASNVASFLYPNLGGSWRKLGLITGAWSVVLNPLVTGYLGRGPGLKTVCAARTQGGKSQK

SMILES | pEC50
COc1ccc(F)c(N2CCC(Oc3ccc(N4C[C@H](C(F)(F)F)C[C@@H]4CC(=O)O)cc3)C2)c1 (single isomer, unassigned) [Example 12, Isomer 1, HCl] | 5.55
COc1ccc(F)c(N2CCC(Oc3ccc(N4C[C@H](C(F)(F)F)C[C@@H]4CC(=O)O)cc3)C2)c1 (single isomer, unassigned) [Example 12, Isomer 2, HCl] | 5.27
COc1ccc(F)c(N2CCC(Oc3ccc(N4C[C@H](OC)C[C@@H]4CC(=O)O)cc3)CC2C)c1 (single isomer, unassigned) [Example 13, Isomer 1, HCl] | 6.15
COc1ccc(F)c(N2CCC(Oc3ccc(N4C[C@H](OC)C[C@@H]4CC(=O)O)cc3)CC2C)c1 (single isomer, unassigned) [Example 13, Isomer 2, HCl] | 6.80
COc1ccc(F)c(N2CCC(Oc3ccc(N4C[C@H](OC)C[C@@H]4CC(=O)O)cc3)C(C)C2)c1 (single isomer, unassigned) [Example 17, Isomer 1] | 6.47
COc1ccc(F)c(N2CCC(Oc3ccc(N4C[C@H](OC)C[C@@H]4CC(=O)O)cc3)C(C)C2)c1 (single isomer, unassigned) [Example 17, Isomer 2] | 7.19
COc1ccc(F)c(N2CCC(Oc3ccc(N4CC(C(F)(F)F)C(C)C4CC(=O)O)cc3)CC2)c1 (single isomer, unassigned) [Example 26, Isomer 2, 2-((2,3-trans,3,4-trans)-1-(4-((1-(2-Fluoro-5-methoxyphenyl)piperidin-4-yl)oxy)phenyl)-3-methyl-4-(trifluoromethyl)pyrrolidin-2-yl)acetic acid, HCl] | 5.08
COc1cc(N2CCC(Oc3ccc(N4C[C@H](C(F)(F)F)C[C@@H]4CC(=O)O)cc3)C(C)C2)c(Cl)cn1 (single isomer, unassigned) [Example 27, Isomer 1, HCl] | 6.36
COc1cc(N2CCC(Oc3ccc(N4C[C@H](C(F)(F)F)C[C@@H]4CC(=O)O)cc3)C(C)C2)c(Cl)cn1 (single isomer, unassigned) [Example 27, Isomer 2, HCl] | 6.89
COc1cc(N2CCC(Oc3ccc(N4C[C@H](C(F)(F)F)C[C@@H]4CC(=O)O)cc3)C(F)C2)c(Cl)cn1 (single isomer, unassigned) [Example 28, Isomer 1, HCl] | 6.48
COc1cc(N2CCC(Oc3ccc(N4C[C@H](C(F)(F)F)C[C@@H]4CC(=O)O)cc3)C(F)C2)c(Cl)cn1 (single isomer, unassigned) [Example 28, Isomer 2, HCl] | 6.68
CCOc1ccc(F)c(N2CCC(Oc3ccc(N4C[C@H](C(F)(F)F)C[C@@H]4CC(=O)O)cc3)C(CC)C2)c1 (single isomer, unassigned) [Example 33, Isomer 1, HCl] | 5.72
CCOc1ccc(F)c(N2CCC(Oc3ccc(N4C[C@H](C(F)(F)F)C[C@@H]4CC(=O)O)cc3)C(CC)C2)c1 (single isomer, unassigned) [Example 33, Isomer 2, HCl] | 6.37
CCOc1ccc(F)c(N2CCC(Oc3ccc(N4C[C@H](C(F)(F)F)C[C@@H]4CC(=O)O)cc3)C(CC(C)C)C2)c1 (single isomer, unassigned) [Example 35, Isomer 1, HCl] | 5.74
CCOc1ccc(F)c(N2CCC(Oc3ccc(N4C[C@H](C(F)(F)F)C[C@@H]4CC(=O)O)cc3)C(Cc3ccccc3)C2)c1 (single isomer, unassigned) [Example 36, Isomer 1, HCl] | 5.22
CCOc1ccc(F)c(N2CCC(Oc3ccc(N4C[C@H](C(F)(F)F)C[C@@H]4CC(=O)O)cc3)C(Cc3ccccc3)C2)c1 (single isomer, unassigned) [Example 36, Isomer 2, HCl] | 6.13
CCOc1ccc(F)c(N2CCC(Oc3ccc(N4C[C@H](C(F)(F)F)C[C@@H]4CC(=O)O)cc3)C(C)C2C)c1 (single isomer, unassigned) [Example 44, Isomer 1, HCl] | 6.30
CCOc1ccc(F)c(N2CCC(Oc3ccc(N4C[C@H](C(F)(F)F)C[C@@H]4CC(=O)O)cc3)C(C)C2C)c1 (single isomer, unassigned) [Example 44, Isomer 2, HCl] | 6.30
